# In PubChem BioAssay AID624497 (The Scripps Research Institute Molecular Screening Center, 2012):
# The source made the active and inactive calls. The rule behind the calls is not given here.
# Target: Methionine sulfoxide reductase A (Bos taurus)
# Assay: concentration-response MsrA enzyme activation – biochemical, absorbance, bovine, late stage, dose response (AID 624497)
# Conditions: purified MsrA enzyme activity, absorbance read-out
row,Structure (SMILES),EC50
1,O=C1C(=O)c2cccnc2-c2ncccc21,4.46 µM
2,Nc1nc(=S)ss1,inactive
3,O=C(COC(=O)c1ccc([N+](=O)[O-])s1)Nc1cccc(S(=O)(=O)NC2=NCCCCC2)c1,> 104 µM (inactive)
4,O=C(COC(=O)c1ccc([N+](=O)[O-])s1)c1ccc[nH]1,inactive
5,O=C(OCC(=O)N(c1ccccc1)c1ccccc1)c1ccc([N+](=O)[O-])s1,inactive
6,OCC[n+]1c2ccccc2nc2ccc(N3CCOCC3)cc21,inactive
7,O=C(OCC(=O)N1CCN(c2ccccc2)CC1)c1ccc([N+](=O)[O-])s1,inactive
8,O=C(COC(=O)c1ccc([N+](=O)[O-])s1)NCc1ccc(F)cc1,inactive
9,COc1ccccc1NC(=O)COC(=O)c1ccc([N+](=O)[O-])s1,inactive
10,Cc1oc2c(c1C(=O)c1ccccc1)C(=O)C(=O)c1ccccc1-2,> 104 µM (inactive)
11,O=C(OCc1nnc(-c2ccccc2)o1)c1ccc([N+](=O)[O-])s1,inactive
12,O=C1C=C(Nc2ccccc2O)c2ccccc2C1=O,> 104 µM (inactive)
13,O=C(OCC(=O)c1c[nH]c2ccccc12)c1ccc([N+](=O)[O-])s1,> 104 µM (inactive)
14,O=C1c2ccccc2-c2nnc(-c3ccccc3)cc21,> 104 µM (inactive)
15,CS(=O)(=O)c1ccc(N)c(SSc2cc(S(C)(=O)=O)ccc2N)c1,> 104 µM (inactive)
16,C[n+]1c2ccccc2nc2ccc(NCCO)cc21,4.93 µM

row,Structure (SMILES),EC50
1,O=[N+]([O-])c1ccc(C=Nc2cccc3ccccc23)s1,> 104 µM (inactive)
2,COCCCn1c(=O)c2ccccc2n2c(=S)[nH]nc12,> 104 µM (inactive)
3,CC(C)(C)c1ccc(NC(=O)COC(=O)c2ccc([N+](=O)[O-])s2)cc1,> 104 µM (inactive)
4,CNc1ccc2nc3ccccc3[n+](C)c2c1,2.05 µM
5,Cc1ccc2[nH]c3c(c2c1)CN(C(=O)CN1CCN(c2ccccn2)CC1)CC3,> 104 µM (inactive)
6,O=C(COC(=O)c1ccc([N+](=O)[O-])s1)NNC(=O)c1ccccc1,> 104 µM (inactive)
7,O=C(c1ccccc1)c1coc2c1C(=O)c1ccccc1C2=O,inactive
8,CC1CCCC(NC(=O)COC(=O)c2ccc([N+](=O)[O-])s2)C1C (configuration not stated),inactive
9,O=C(COC(=O)c1ccc([N+](=O)[O-])s1)Nc1ccccc1,> 104 µM (inactive)
10,O=C(COC(=O)c1ccc([N+](=O)[O-])s1)NCCc1ccccc1,inactive
11,O=C1C(Cl)=C(Nc2ccc(O)cc2)C(=O)c2ccccc21,> 104 µM (inactive)
12,O=C1CN(C(=O)COC(=O)c2ccc([N+](=O)[O-])s2)c2ccccc2N1,inactive
13,COc1ccc(S(=O)(=O)N2CCOCC2)cc1NC(=O)COC(=O)c1ccc([N+](=O)[O-])s1,inactive
14,c1ccc2[nH]c3cc4ncnc4cc3nc2c1,inactive
15,NC1=C(Br)C(=O)c2ccccc2C1=O,> 104 µM (inactive)
16,COc1cc(NC(=O)COC(=O)c2ccc([N+](=O)[O-])s2)cc(OC)c1OC,> 104 µM (inactive)
